Test results taken from the supplement of paper PMC10307832.

Columns and labels:
Experiment in all cases: relative viability (nuclei count vs DMSO), 5 days (fraction); higher = more cells survive
Selisistat + Luminespib = compound: C1CC(C2=C(C1)C3=C(N2)C=CC(=C3)Cl)C(=O)N [Selisistat] + CCNC(=O)c1noc(-c2cc(C(C)C)c(O)cc2O)c1-c1ccc(CN2CCOCC2)cc1 [Luminespib] (partner 0.01 µM)
How it was run: (§1)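 Five library-drug doses in √10 steps were combined with a fixed anchor-drug dose, or a single drug was given alone, by pin tool to lung cancer cell lines in 1536-well plates the day after seeding. Nuclei were stained and counted after 5 days. Relative viability is the nuclei count in treated wells over that in vehicle wells, taken as the median of duplicate plates.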

Serdemetan + AZD7762 = compound: c1ccc2c(CCNc3ccc(Nc4ccncc4)cc3)c[nH]c2c1 [Serdemetan] + NC(=O)Nc1cc(-c2cccc(F)c2)sc1C(=O)N[C@H]1CCCNC1 [AZD7762] (partner 0.2 µM)
How it was run: as §1

Selisistat + Olaparib = compound: C1CC(C2=C(C1)C3=C(N2)C=CC(=C3)Cl)C(=O)N [Selisistat] + O=C(c1cc(Cc2n[nH]c(=O)c3ccccc23)ccc1F)N1CCN(C(=O)C2CC2)CC1 [Olaparib] (partner 8 µM)
How it was run: as §1

Serdemetan + Pictilisib = compound: c1ccc2c(CCNc3ccc(Nc4ccncc4)cc3)c[nH]c2c1 [Serdemetan] + CS(=O)(=O)N1CCN(Cc2cc3nc(-c4cccc5[nH]ncc45)nc(N4CCOCC4)c3s2)CC1 [Pictilisib] (partner 1 µM)
How it was run: as §1

| Cell Line | relative viability (Selisistat + Luminespib; first compound 0.4 µM) | relative viability (Selisistat + Luminespib; first compound 1.265 µM) | relative viability (Selisistat + Luminespib; first compound 4 µM) | relative viability (Selisistat + Luminespib; first compound 12.65 µM) | relative viability (Selisistat + Luminespib; first compound 40 µM) | relative viability (Serdemetan + AZD7762; first compound 0.04 µM) | relative viability (Serdemetan + AZD7762; first compound 0.1265 µM) | relative viability (Serdemetan + AZD7762; first compound 0.4 µM) | relative viability (Serdemetan + AZD7762; first compound 1.265 µM) | relative viability (Serdemetan + AZD7762; first compound 4 µM) | relative viability (Selisistat + Olaparib; first compound 0.4 µM) | relative viability (Selisistat + Olaparib; first compound 1.265 µM) | relative viability (Selisistat + Olaparib; first compound 12.65 µM) | relative viability (Selisistat + Olaparib; first compound 40 µM) | relative viability (Serdemetan + Pictilisib; first compound 0.04 µM) | relative viability (Serdemetan + Pictilisib; first compound 0.1265 µM) | relative viability (Serdemetan + Pictilisib; first compound 0.4 µM) | relative viability (Serdemetan + Pictilisib; first compound 4 µM) | relative viability (Serdemetan + Pictilisib; first compound 1.265 µM) | relative viability (Selisistat + Olaparib; first compound 4 µM) |
| --- | --- | --- | --- | --- | --- | --- | --- | --- | --- | --- | --- | --- | --- | --- | --- | --- | --- | --- | --- | --- |
| NCI-H3122 | 0.0986 | 0.102 | 0.1 | 0.115 | 0.088 | 1 | 0.975 | 1.03 | 0.929 | 0.71 | 0.661 | 0.661 | 0.556 | 0.649 | 0.627 | 0.669 | 0.6 | 0.55 | – | – |
| NCI-H2087 | 0.157 | 0.139 | – | 0.147 | 0.158 | 1.23 | 0.828 | 0.778 | 0.494 | 0.535 | 0.748 | 0.684 | 0.573 | 0.553 | 0.961 | 0.966 | 0.814 | 0.422 | 0.493 | – |
| LC-2-ad | 1.13 | – | 1.02 | 1 | 1.06 | 0.806 | 0.836 | 0.791 | 0.737 | 0.709 | 0.801 | 0.69 | 0.633 | 0.71 | 0.42 | 0.445 | 0.431 | 0.417 | – | 0.717 |
| NCI-H1915 | 0.839 | 0.775 | 0.775 | 0.695 | 0.75 | 0.685 | 0.656 | 0.763 | 0.536 | 0.503 | 0.329 | 0.26 | 0.252 | 0.304 | 0.966 | 1.01 | 0.921 | 0.985 | 0.811 | 0.25 |
| NCI-H1793 | 0.185 | 0.166 | – | 0.217 | 0.234 | 0.367 | 0.313 | 0.335 | 0.181 | 0.192 | 1.01 | 0.935 | 0.812 | 0.912 | 0.302 | 0.415 | 0.31 | 0.199 | 0.163 | – |
| RERF-LC-KJ | 1.24 | 1.02 | 1.27 | 1.09 | 0.956 | 1.03 | 0.547 | 0.806 | 0.897 | 0.94 | 0.962 | 0.916 | 0.828 | 0.839 | 0.433 | 0.561 | 0.569 | 0.388 | 0.475 | 0.844 |
| LXF-289 | 0.601 | 0.565 | 0.696 | 0.686 | 0.673 | 1.07 | 1.11 | 1.07 | 0.982 | 0.846 | 1.1 | 1.03 | 0.966 | 1.04 | 0.792 | 0.783 | 0.662 | 0.707 | 0.701 | 0.96 |
| PC-14 | 0.141 | 0.151 | – | 0.221 | 0.311 | 0.327 | 0.357 | 0.204 | 0.304 | 0.161 | 0.252 | 0.201 | 0.204 | 0.29 | 0.626 | 0.631 | 0.596 | 0.367 | 0.634 | 0.186 |
| NCI-H650 | 0.874 | 0.772 | 0.894 | 0.77 | 0.665 | 0.854 | 0.977 | 1.2 | 1.02 | 0.933 | 0.51 | 0.379 | 0.382 | 0.3 | 0.743 | 0.778 | 0.977 | 0.746 | 0.793 | 0.496 |
| NCI-H1666 | 1.05 | 1 | 0.969 | 0.995 | 0.878 | 0.812 | 0.721 | 0.731 | 0.691 | 0.634 | 0.798 | 0.763 | 0.811 | 0.631 | 0.412 | 0.413 | 0.525 | 0.465 | 0.531 | 0.745 |
| NCI-H2085 | 0.569 | 0.406 | 0.47 | 0.452 | 0.4 | 0.995 | 0.916 | 0.974 | 0.801 | 0.792 | 0.818 | 0.771 | 0.824 | 0.855 | 0.486 | 0.516 | 0.483 | 0.438 | 0.357 | 0.766 |
| NCI-H1734 | 0.173 | 0.194 | 0.223 | 0.208 | 0.216 | 0.375 | 0.268 | 0.266 | 0.104 | 0.144 | 0.667 | 0.553 | 0.583 | 0.658 | 0.466 | – | 0.354 | 0.242 | 0.163 | 0.731 |
| NCI-H2126 | 0.929 | 0.972 | 0.872 | 0.947 | 0.965 | 0.924 | 1.04 | 0.923 | 0.932 | 1.04 | 0.981 | 0.922 | 0.921 | 0.934 | 0.552 | 0.473 | 0.428 | 0.542 | 0.521 | 0.904 |
| EMC-BAC-2 | 1.12 | 1.07 | 1.14 | 1.17 | 1.08 | 1.08 | 1.1 | 1.07 | 0.955 | 0.827 | 0.577 | 0.504 | 0.371 | 0.405 | 0.564 | 0.556 | 0.507 | 0.502 | 0.508 | 0.676 |
| NCI-H1993 | 0.868 | 0.685 | 0.831 | 1.06 | 0.846 | 0.789 | 0.897 | 0.588 | 0.778 | 0.726 | 1.06 | 1.07 | 1.15 | 1.03 | 0.815 | 0.884 | 0.809 | 0.761 | – | – |
| NCI-H647 | 0.119 | 0.205 | 0.146 | 0.111 | 0.15 | 0.556 | 0.382 | 0.396 | 0.41 | 0.285 | 0.622 | 0.577 | 0.48 | 0.591 | 0.359 | 0.313 | 0.499 | 0.445 | 0.392 | 0.736 |
| NCI-H1792 | 0.406 | 0.52 | – | 0.536 | 0.399 | 0.674 | 0.59 | 0.63 | 0.326 | 0.324 | 0.47 | 0.403 | 0.479 | 0.442 | 0.278 | 0.274 | 0.283 | 0.145 | 0.242 | – |
